SMILES strings stand for the structures. Like-named read-outs stand apart in the source and are kept apart here.

In one experiment the target is T1, Brd2(BD1) (Homo sapiens, UniProt P25440).
T1 construct: GST tagged bromodomain proteins were purchased from BPS Bioscience; purchased BPS Bioscience
The experiment can be described thus: HTRF BET selectivity profile, Brd2(BD1). The class given is binding. On the technique in general: In TR-FRET formats the signal depends on donor and acceptor labels being close together.

The next experiment has as its target T2, Brdt(BD1) (Homo sapiens, UniProt Q58F21).
T2 construct: GST tagged bromodomain proteins were purchased from BPS Bioscience; purchased BPS Bioscience
As to the kind of experiment: HTRF BET selectivity profile, Brdt(BD1). It counts as binding. The gist of the method: (§1)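 HTRF peptide-displacement assay with GST-tagged bromodomains and histone peptide, 0.5% final DMSO, incubated 3 h, 6 h or overnight at room temperature or 4 °C depending on bromodomain. 665/620 nm ratio read; inhibition scaled between DMSO and no-peptide controls, IC50 in triplicate.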

For a further experiment, the target named is T3, Brd4(BD2) (Homo sapiens, UniProt O60885).
T3 construct: GST tagged bromodomain proteins were purchased from BPS Bioscience; purchased BPS Bioscience
The experiment can be described thus: HTRF BET selectivity profile, Brd4(BD2). The class given is binding. The method, boiled down: as §1

The next experiment has as its target T4, Brd3(BD2) (Homo sapiens, UniProt Q15059).
T4 construct: GST tagged bromodomain proteins were purchased from BPS Bioscience; purchased BPS Bioscience
As to the kind of experiment: HTRF BET selectivity profile, Brd3(BD2). The class given is binding. The method, boiled down: as §1

The target of a further experiment is T5, Brd2(BD2) (Homo sapiens, UniProt P25440).
T5 construct: GST tagged bromodomain proteins were purchased from BPS Bioscience; purchased BPS Bioscience
The experiment can be described thus: HTRF BET selectivity profile, Brd2(BD2). The class given is binding. To be noted: read-out: Brd2(BD2) IC50.

The next experiment has as its target T6, ATAD2 (Homo sapiens, UniProt Q6PL18).
T6 construct: GST tagged bromodomain proteins were purchased from BPS Bioscience; purchased BPS Bioscience
T6 sequence (Q6PL18 980-1092 limits assumed): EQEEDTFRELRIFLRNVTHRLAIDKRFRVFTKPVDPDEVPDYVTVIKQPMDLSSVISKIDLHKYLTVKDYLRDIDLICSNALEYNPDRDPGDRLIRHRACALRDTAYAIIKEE
The experiment can be described thus: HTRF selectivity profile, ATAD2 (non-BET bromodomain control). It counts as binding. As to the method:
HTRF assays were performed in white 384 Well Small Volume™ HiBase Polystyrene Microplates (Greiner) with a total working volume of 20 μL. Compounds were dispensed, with 100 nL per well (0.5% final DMSO), from a concentration stock of 10 mM in 100% DMSO and with serial DMSO dilutions, using an Echo® 550 robot from the Access Labcyte platform (Labcyte) and based on the transfer of liquid by acoustic wave. Then, 19.5 μL of buffer is added, using a Multidrop Combi (Thermo Fisher Scientific). […] HTRF signals were measured, after a final incubation (3 h or 6 h or overnight at room temperature or 4° C., according to the bromodomain), using a PHERAstar FS (BMG Labtech) with an excitation filter at 337 nm and fluorescence wavelength measurement at 620 and 665 nm, an integration delay of 60 μs and an integration time of 500 μs. Results were analyzed with a two-wavelengths signal ratio: [intensity (665 nm)/intensity (620 nm)]*104.
Percentage of inhibition was calculated using the following equation: % inhibition=[(compound signal)−(min signal)]/[(max signal)−(min signal)]*100, where ‘max signal’ is the signal ratio with the compound vehicle alone (DMSO) and ‘min signal’ the signal ratio without peptide. […]

For another experiment, the system named is Jurkat cells. As to the kind of experiment: Cell Titer-Glo cell viability assay, Jurkat. It counts as cell-based. To be noted: Homo sapiens, 72 h, mean of three experiments, NA = IC50 > maximal concentration used. As to the method:
(§2) The human leukemia cell line Jurkat (ATCC® TIB-152) and Molm14 was maintained in RPMI-1640 medium or MEMα, respectively and supplemented both with 10% FBS at 37° C. and 5% CO2.
(§3) In antiproliferative assays, compounds were assayed for their growth inhibiting activity towards the described cancer cell lines using the Cell Titer-Glo Luminescent Cell Viability Assay as described by the manufacturer (Promega Corporation). Briefly, 10.000 cells were plated onto 96 well-plates (white with clear bottom (3610, Corning Costar)) in 90 μL media per well immediately before assay. 10 μL of compounds were added at different concentrations (ranging from 50 μM to 6 nM) to each well and cell cultures were incubated 37° C. during 72 h. Vehicle (DMSO) was used as negative control, JQ1 (a pan-BET inhibitor) was used as positive control and all compounds were tested in constant percentage of DMSO (1%). After addition of 50 μL Cell Titer-GLO, shaking 2 minutes and incubating at room temperature 10 minutes, the Luminescence was measured using a Centro luminometer LB960 (Berthold). Dose-response curves were generated and effective dose 50 values (EC50) were calculated using non-linear regression analysis (Graph Pad Prism).
A general note: Cellular ATP, detected with luciferase, serves as a proxy for viable cell number.

The next experiment has as its system Molm14 cells. As to the kind of experiment: Cell Titer-Glo cell viability assay, Molm14. The class given is cell-based. Conditions: Homo sapiens, MOLM-14, 72 h, mean of three experiments, NA = IC50 > maximal concentration used. As to the method:
as §2, §3

For the next experiment, the target named is BRD4(BD1) (Homo sapiens, UniProt O60885). The experiment can be described thus: HTRF assay, BRD4(BD1)/histone peptide interaction. It counts as binding. Set-up: made in house. Conditions: for IC50: HTRF.
A further experiment deals with Brd3(BD1) (Homo sapiens, UniProt Q15059). The experiment can be described thus: HTRF BET selectivity profile, Brd3(BD1). The class given is binding. Set-up: GST tagged bromodomain proteins were purchased from BPS Bioscience; purchased BPS Bioscience.
For the next experiment, the system named is c-Myc. To be noted: known inhibitors, background statement; cited from earlier work.
The test system of the next experiment is acute leukemia. Conditions: phase I study; cited from earlier work.
Experiment [1] has as its system BD2 domain of BRD2 and BRD3. Conditions: cited from earlier work.

T1 sequence (P25440 74-180 limits assumed): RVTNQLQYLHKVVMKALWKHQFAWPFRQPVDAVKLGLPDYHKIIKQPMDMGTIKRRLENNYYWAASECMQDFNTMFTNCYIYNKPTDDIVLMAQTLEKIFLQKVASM
Brd3(BD1), sequence (Q15059 34-140 limits assumed): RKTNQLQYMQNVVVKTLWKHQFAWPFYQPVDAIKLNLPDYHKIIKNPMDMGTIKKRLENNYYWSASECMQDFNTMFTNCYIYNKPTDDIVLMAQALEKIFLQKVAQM
T4 sequence (Q15059 306-415 limits assumed): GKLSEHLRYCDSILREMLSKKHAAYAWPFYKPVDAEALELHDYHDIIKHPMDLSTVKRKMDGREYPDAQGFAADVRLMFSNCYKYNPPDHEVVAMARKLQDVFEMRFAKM
T5 sequence (P25440 344-453 limits assumed): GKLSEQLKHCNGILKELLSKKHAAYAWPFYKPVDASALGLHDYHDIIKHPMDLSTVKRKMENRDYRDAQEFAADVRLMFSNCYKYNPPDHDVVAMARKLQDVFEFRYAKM

As for `CCn1cnc2c1c(=O)[nH]c(=O)n2Cc1ccc(CNS(=O)(=O)c2ccc(-c3ccccc3)cc2)cc1` [Compound 29b], the concentration for half-maximal inhibition (IC50) (commonly the concentration needed to halve the response being measured) on Brd2(BD1) (read-out: Brd2(BD1) IC50) was found to be 3.31 µM; against Brdt(BD1), 19.7 µM; at Brd4(BD2), 17.7 µM; at Brd3(BD2) it was 13.5 µM; at Brd2(BD2), 16 µM; against ATAD2, 24.6 µM. In addition, the 50% inhibitory concentration (IC50) in the experiment with Jurkat cells came to 26.5 µM; in the experiment on Molm14 cells, 10.6 µM; at BRD4(BD1) (mean of three experiments, NA = IC50 > 50 μM, read-out: Brd4(8D1) IC50) it was 450 nM; at BRD4(BD1) (triplicates, NA = IC50 > maximal concentration of compound used), 450 nM; on Brd3(BD1) it was 897 nM. For the same molecule, on Brd2(BD1) (selectivity Brd2(BD1) vs Brd2(BD2), HTRF IC50), the “Ratio 2-1 vs 2-2” value came to 5. Moreover, the “Ratio 4-1 vs 4-2” value at BRD4(BD1) (selectivity Brd4(BD1) vs Brd4(BD2), HTRF IC50) came to 39. In addition, the “Ratio 3-1 vs 3-2” value on Brd3(BD1) (selectivity Brd3(BD1) vs Brd3(BD2), HTRF IC50) was determined as 15.
With `COc1cc2c(cc1-c1c(C)noc1C)ncc1[nH]c(=O)n([C@H](C)c3ccccn3)c12` [I-BET151], the “effect on c-Myc expression” value with c-Myc is recorded as “strong downregulation of c-Myc”.
Turning to `Cc1sc2c(c1C)C(c1ccc(Cl)cc1)=N[C@@H](CC(=O)OC(C)(C)C)c1nnc(C)n1-2` [JQ1], the “effect on c-Myc expression” value in the experiment on c-Myc is “strong downregulation of c-Myc”.
With `Cc1sc2c(c1C)C(c1ccc(Cl)cc1)=N[C@@H](CC(=O)Nc1ccc(O)cc1)c1nnc(C)n1-2` [OTX015, (6S)-4-(4-chlorophenyl)-N-(4-hydroxyphenyl)-2,3,9-trimethyl-6H-thieno[3,2-f][1,2,4]triazolo[4,3-a][1,4]diazepine-6-acetamide], the “clinical response in acute leukemia” value with acute leukemia is given as “induced remissions, including complete remission in two patients with refractory disease”.
With `COc1cc(OC)c2c(=O)[nH]c(-c3cc(C)c(OCCO)c(C)c3)nc2c1` [RVX-208, 2-[4-(2-hydroxyethoxy)-3,5-dimethylphenyl]-5,7-dimethoxy-4(3H)-quinazolinone], the “effect on c-Myc expression” value with c-Myc is given as “no significant effect”. Further, the bromodomain binding preference entry in experiment [1] was “binds preferentially to the BD2 domain of BRD2 and BRD3”.

The values are drawn from patent publication US11180510B2, “Xanthine derivatives and uses thereof as inhibitors of bromodomains of BET proteins” (Centre national de la recherche scientifique, priority 2017, dated 2021).
